Consider 76 compounds from PubChem BioAssay AID179 (DTP/NCI, 2004).

Where “and” joins values, the source holds several entries; their conditions need not be identical. Equal entries are not always repeated. Calls of active or inactive are those of the source.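 How the source made its calls: active means compounds giving half or more protection of infected cells from virus-caused growth loss, again on retest; inactive means the rest.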

The experiment deals with CEM cells HIV-1 protection, formazan growth assay. As to the kind of experiment: NCI AIDS Antiviral Assay. To be noted: for IC50: measured here: growth of uninfected CEM cells. In a few lines: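 CEM (human) cells, HIV-1 infected vs uninfected, 5-point dosing, formazan growth read-out. Retest threshold 50% protection.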

For the compound `Cc1nc2c(=S)nc[nH]c2n1Nc1ccccc1`, the EC50 – broadly, the concentration giving half of the maximal effect – is greater than 200 µM and the IC50 (as a rule, the concentration that inhibits the measured activity by half) stood at 72.4 µM.

With `O=S1Cc2nc3ccccc3n2C1c1c(F)cccc1F` (stereo unspecified), the EC50 is greater than 117 µM.

In the case of `CC1(C)O[C@@H](CCl)C[C@@H](C#N)O1`, the result was inactive.

For the compound `CC1=CC(C)=Nc2ccc(Cl)cc2N1`, the EC50 was greater than 200 µM; the IC50 is 91.2 µM and > 200 µM.

Regarding `O=C1c2cnccc2Cc2cccc3c2N1c1ccccc1S3`, the EC50 is greater than 22.9 µM and the IC50 was greater than 22.9 µM.

Take `CCN(CC)Cc1c(/C=C\c2cc(OC)c(OC)c(OC)c2)ccc(OC)c1O`: the EC50 was greater than 200 µM and the IC50 stood at 1.1 µM.

Consider `NC1=NC2=C(CCCC2)C(c2cccs2)S1` (stereo unspecified), for which the EC50 is greater than 145 µM and the IC50 is greater than 145 µM.

With `O=C1ONN(c2ccccc2)/C1=C/N=Nc1ncnc2nc[nH]c12`, the concentration for a half-maximal effect (EC50) was 162 µM and the IC50 is greater than 200 µM.

For `CC(C)(CN1CCCCC1)C(=O)CC(SCCS(=O)(=O)O)c1ccc(Br)cc1` (stereo unspecified), the EC50 was greater than 427 µM and the IC50 came to 1.74 µM.

Turning to `Cc1cc2c(C(C)C)c(O)c(O)c(C=Nc3ccc4ccccc4c3)c2c(O)c1-c1c(C)cc2c(C(C)C)c(O)c(O)c(C=Nc3ccc4ccccc4c3)c2c1O`, the EC50 is 10.7 µM and the IC50 was 22.9 µM.

For `COc1ccc(-c2c(N)n(-c3nc4ccccc4s3)c(=O)c3cc([N+](=O)[O-])ccc23)cc1`, the EC50 was greater than 100 µM and the half-inhibitory concentration (IC50) was 1.07 µM.

`Cn1c2ccccc2c2ncc3[nH]c4ccccc4c3c21`: the result was inactive.

As for `O=C(Cn1cc(F)c(=O)[nH]c1=O)C12CC3CC(CC(C3)C1)C2`, the EC50 is greater than 200 µM and the IC50 was 186 µM.

Take `C[n+]1ccc(Nc2ccc(O)cc2)c2ccc(Cl)cc21`: the EC50 is greater than 603 µM and the IC50 was found to be 11 µM.

`Cc1cnc(SCCN(C)C)nc1-c1cccs1`: the EC50 was greater than 891 µM and the IC50 was 22.4 µM.

For `COC(=O)C1=C(O)c2cc(OC)c(OC)c(OC)c2C(c2ccc3c(c2)OCO3)[C@@H]1C(=O)OC` (stereo partly specified), the result was inactive.

For `Cc1cc(NS(=O)(=O)c2ccc(Nc3c4ccccc4nc4c(C(=O)Nc5ccccc5)cccc34)cc2)no1`, the EC50 was greater than 200 µM and the IC50 amounted to 10.5 µM.

Regarding `S=c1cn[nH]c2ccc(S)cc12`, the EC50 is greater than 182 µM and the concentration for half-maximal inhibition (IC50) amounted to 102 µM.

Regarding `Clc1ccc(CSc2cnnc3ccccc23)cc1`, the EC50 is greater than 61.7 µM and the half-maximal inhibitory concentration (IC50) was greater than 61.7 µM.

As for `CC(=O)CCS(=O)(=O)O`, the EC50 is greater than 200 µM and the IC50 was greater than 200 µM.

With `COC(=O)c1cc2c(c(C(=O)OC)c1O)C(=O)C=CC2=O`, the EC50 is greater than 25.1 µM and the IC50 was found to be 6.61 µM.

In the case of `O=C(O)CCc1ccc2c(c1)CC1(Cc3ccccc3C1)C2`, the EC50 is greater than 200 µM and the IC50 was 102 µM.

Turning to `O=C(O)c1cccc[c]1[Sb](=[O])([OH])[OH]`, the concentration giving a half-maximal response (EC50) is greater than 200 µM and the IC50 came to 87.1 µM.

In the case of `CCCCCCCCCCCCCCCCOP(=O)(O)Oc1ccc(/C=C\c2ccc(OP(=O)(O)OCCCCCCCCCCCCCCCC)cc2)cc1`, the outcome was inactive.

As for `N#CC1(c2ccccc2)CCNCC1`, the EC50 is greater than 1120 µM and the IC50 worked out at 562 µM.

For `Cc1nc2c(=O)[nH]c3ccc(Cl)cc3c2o1`, the EC50 was greater than 200 µM and the IC50 turned out to be 148 µM.

On to `Cn1cnc([N+](=O)[O-])c1Sc1nnc(C(F)(F)F)n1C`, for which the EC50 is greater than 813 µM and the IC50 was found to be 4.27 µM.

As to `CCOC(=O)c1[nH]n(-c2ccccc2)c(=O)c1/C=N/C(=S)Nc1ccccc1OC`, the EC50 was greater than 200 µM and the IC50 is 93.3 µM.

On to `Clc1ccc(/C=N/Nc2nnc3c4ccccc4c4ncccc4c3n2)cc1`, for which the EC50 is greater than 50.1 µM and the IC50 was greater than 50.1 µM.

Turning to `O=c1n(-c2ccccc2)c(=O)n2n1C1C=CC2CCCCCC1`, the EC50 is greater than 200 µM and the half-inhibitory concentration (IC50) was greater than 200 µM.

With `CC(=O)c1c2c(cc3c1CC1(C3)Cc3ccc4c(c3C1=O)CCC4)CCC2` (stereo unspecified), the EC50 is greater than 200 µM and the half-maximal inhibitory concentration (IC50) turned out to be 40.7 µM.

As to `Cc1cc(N2CCCC2)c([N+](=O)[O-])cc1[N+](=O)[O-]`, the EC50 was greater than 200 µM and the IC50 was greater than 200 µM.

As for `CC1=CC23C(COC(=O)C24CO4)C(C(=O)O)=CC3C1C` (stereo unspecified) (tested in a mixture with another compound), the EC50 is greater than 200 µM and the IC50 is 47.9 µM.

`OCC1OC(c2cccc3cc(O)c(O)cc23)CC1O` (stereo unspecified): the EC50 was greater than 200 µM and the IC50 came to 51.3 µM.

On to `O=C1/C(=C/c2ccccc2)N=C2Sc3c(nc[nH]c3=O)N12`, for which the result was inactive.

With `NC(CC(=O)O)C(=O)O` (stereo unspecified), the EC50 was greater than 38.9 µM and the half-inhibitory concentration (IC50) is greater than 38.9 µM.

In the case of `COc1cc(NCCCCCN=C(N)NC#N)c2ncccc2c1`, the EC50 was greater than 79.4 µM and the IC50 came to 50.1 µM.

Regarding `COc1ccc(C(C#N)NC23CC4CC(CC(C4)C2)C3)cc1OC` (stereo unspecified), the outcome was inactive.

With `CC(C)CC(C#N)C(N)=O` (stereo unspecified), the EC50 was greater than 200 µM and the 50% inhibitory concentration (IC50) was greater than 200 µM.

On to `CC(=O)[C@]1(O)Cc2c(O)c3c(c(O)c2[C@@H](OC2CC(N)C(O)C(C)O2)C1)C(=O)c1c(OCc2ccccc2)cccc1C3=O` (stereo partly specified), for which the result was inactive.

For `O=C1N=C(SC(SC2=NC(=O)C3(NN2)c2ccccc2-c2ccccc23)=C(SC2=NC(=O)C3(NN2)c2ccccc2-c2ccccc23)SC2=NC(=O)C3(NN2)c2ccccc2-c2ccccc23)NNC12c1ccccc1-c1ccccc12`, the EC50 was greater than 91.2 µM and the IC50 stood at 42.7 µM.

`O=C1NC(=O)/C(=C\c2ccccc2)C2=C1CCCC2`: the EC50 is greater than 74.1 µM and the half-maximal inhibitory concentration (IC50) is 15.5 µM.

For `COC(=O)C1(C(=O)OC)CCCC2=NOC3CCC1C23` (stereo unspecified), the EC50 was greater than 891 µM and the IC50 worked out at 575 µM.

In the case of `CNS(=O)(=O)NNS(=O)(=O)c1ccc(Cl)cc1`, the EC50 is greater than 120 µM and the IC50 is greater than 120 µM.

In the case of `CN1C(=O)c2ccccc2Cc2c(N3CCCC3)ncnc21`, the EC50 is greater than 17.8 µM and the IC50 was greater than 17.8 µM.

For `CC(=O)C1CCN(c2ccccc2)C1` (stereo unspecified), the result was inactive.

`COc1ccc(-c2cc(-c3cc(OC)c(OC)c(OC)c3)cc(-c3cc4ccccc4oc3=O)n2)cc1`: the EC50 was greater than 200 µM and the IC50 is 155 µM.

For the compound `O=C1C(c2ccccc2)=[N+]([O-])c2cc([N+](=O)[O-])c(/C(Cl)=C/c3ccccc3)cc21`, the outcome was inactive.

`Nc1nc(Cl)cc(OCC2(CO)CCCC2)n1`: the EC50 was greater than 200 µM and the IC50 was determined as 110 µM.

Turning to `C[C@]12CCC(=O)C(O)=C1CC[C@@H]1C2CC[C@]2(C)Nc3c(cnn3-c3ccccc3)CC12` (stereo partly specified), the result was inactive.

With `COc1ccc2cccc(C(=O)c3ccc(C)c4c3CCC4)c2c1`, the outcome was inactive.

For the compound `Cn1c(=O)nc2n(CCO)ccnc-2c1=O`, the EC50 was greater than 100 µM and the IC50 is greater than 100 µM.

With `O=C(OCCN1CCCC12CCCCC2)C(c1ccccc1)C1C=CCC1` (stereo unspecified), the EC50 is greater than 200 µM and the IC50 came to 24.5 µM.

With `c1ccc([P+](CCCCCCCCCC[P+](c2ccccc2)(c2ccccc2)c2ccccc2)(c2ccccc2)c2ccccc2)cc1`, the EC50 was greater than 200 µM and the IC50 stood at 0.589 µM.

Consider `O=c1ssc(=Nc2ccc(Cl)cc2)n1-c1ccc(Cl)cc1`, for which the EC50 is greater than 200 µM and the IC50 was 8.91 µM.

For the compound `COC(=O)c1c[nH]c(=O)[nH]c1=O`, the EC50 was greater than 200 µM and the IC50 is greater than 200 µM.

`N#Cc1cccc(C2ON=C(c3ccc([N+](=O)[O-])cc3)N2C23CC4CC(CC(C4)C2)C3)c1` (stereo unspecified): the EC50 was greater than 200 µM and the IC50 was greater than 200 µM.

Turning to `COC(=O)/C(=N\NC(C)(C)C)C(C(=O)C(=O)Nc1cc(C)ccc1C)c1nc2ccccc2[nH]c1=O` (stereo unspecified), the result was inactive.

Take `O=C1C=CC(=C(c2ccc(O)cc2)c2ccc(O)cc2)C=C1`: the result was inactive.

For the compound `CS(=O)(=O)CCC1CCC(=O)O1` (stereo unspecified), the EC50 is greater than 200 µM and the IC50 is 182 µM.

`CCC1(C)C=Cc2c(cc(O)c3c(=O)c4ccccc4n(C)c23)O1` (stereo unspecified): the EC50 is greater than 200 µM and the IC50 is greater than 200 µM.

As for `N#C/C(C(=S)NCc1ccccc1)=C(/N)N1CCCC1`, the EC50 is greater than 200 µM and the IC50 came out at 148 µM.

On to `S=c1[nH]nc(Cn2c3ccc(Br)cc3c3nc4ccccc4nc32)n1C1CCCCC1`, for which the EC50 is greater than 200 µM and the 50% inhibitory concentration (IC50) was found to be 51.3 µM.

As to `Cc1ccccc1-n1c(=O)c2ncn(CCCl)c2n(-c2ccccc2C)c1=S`, the EC50 is greater than 200 µM and the IC50 worked out at 102 µM.

With `CCN(C(C)=O)c1cnc(/C=N/NC(N)=S)c2ccccc12`, the EC50 is greater than 200 µM and the IC50 came out at 2.57 µM.

`NCCSSCC(N)C(=O)O` (stereo unspecified): the EC50 was greater than 58.9 µM and the IC50 was greater than 58.9 µM.

Consider `N#CN(CS(=O)(=O)O)C(=N)N`, for which the EC50 is greater than 200 µM and the IC50 was greater than 200 µM.

As for `Clc1ccc(-n2nnc(C3=NCCN3)c2-c2ccccc2)cc1`, the EC50 was greater than 30.9 µM and the IC50 is greater than 30.9 µM.

For the compound `Oc1ccc(Cc2nccc3cc(O)c(O)cc23)cc1O`, the EC50 is greater than 200 µM and the IC50 was found to be 29.5 µM.

`O=C(O)Cc1cc(=O)[nH]c2c1C(=O)CCC2`: the result was inactive.

In the case of `O=C(Cn1cc(I)c(C(=O)NCC(O)CO)n1)NCC(O)CO` (stereo unspecified), the EC50 is greater than 562 µM and the IC50 was greater than 562 µM.

Turning to `O=C(Nc1ccc2c(O)c(N=Nc3ccc4c(O)cc(S(=O)(=O)O)cc4c3)c(S(=O)(=O)O)cc2c1)c1ccccc1`, the EC50 was 18.6 µM and the concentration for half-maximal inhibition (IC50) stood at 50.1 µM.

For `O=C(O)C1(C(=O)O)CC23CCC2(COC3)C1` (stereo unspecified), the outcome was inactive.

For `Cn1c(=O)c2c(no[n+]2[O-])n(C)c1=O`, the EC50 is greater than 200 µM and the IC50 came out at 13.2 µM.

Consider `c1ccc(C(NC2=NCCO2)C2CC2)cc1` (stereo unspecified), for which the EC50 is greater than 200 µM and the IC50 was 45.7 µM.

As to `S=C(SSC(=S)C1CCCC1=NC1CCCCC1)C1CCCC1=NC1CCCCC1` (stereo unspecified), the EC50 is greater than 200 µM and the IC50 is 151 µM.
